Values after ≈ are worked out from the molar mass of the structure shown.

What is called EC50 is the concentration at which the effect is half-maximal.

In this experiment the test system is RSV Long wild type. Put plainly: Assay for compounds active against RSV (HEp2 cells, MTT cell viability). Conditions: human respiratory syncytial virus, HEp-2.

Procedure: Graded concentrations of test compounds were prepared by serial dilution in 96 well tissue culture plates containing 100 μL per well of assay media (Eagles Minimal Essential Medium (MEM) supplemented with 2% foetal bovine serum and Glutamine alanyl-L-glutamine). […] 1.5×10^4 of the diluted cells were added to several individual wells of each 96 well plate which were designated uninfected control wells. The remaining cell suspension was exposed to infectious RSV by addition of sufficient virus to the suspension to yield a concentration of 0.4 plaque forming units per cell. The cell-virus suspension was mixed well by inversion and 100 μL immediately dispensed into the remaining wells of the 96 well plates. Assay plates were incubated in a 37° C. incubator for 5 days. Viral replication was quantified by determination of cell viability substantially as described by Watanabe and colleagues (Watanabe, W. et al., J. Virol. Methods, 48: 257-265, 1994). Briefly, 100 μL of 3 mg/mL MTT (3(4,5-dimethylthiazol-2-yl)-2,5-diphenyltetrazolium bromide) was added to each well and plates incubated at 37° C. in a 5% CO2 incubator for 2 hours. […] The extent of metabolism was measured via determination of absorbance using a computer-controlled microplate reader at 540 nm with a reference wavelength of 690 nm. […]

The compound `NC(=O)c1ncn(C2O[C@H](CO)[C@@H](O)[C@H]2O)n1` (stereo partly drawn) [Ribavirin, 1-D-ribofuranosyl-1H-1,2,4-triazole-3-carboxamide] displayed an EC50 of 5.54 µg/mL (≈ 22.7 µM).

Source of the values: US20050221285A1, “Method for identifying or screening anti-viral agents” (priority 2001, published 2005).
